# According to patent US20250275964A1, “METHODS OF INHIBITING LIVER-TYPE GLUTAMINASE, GLS2” (CORNELL UNIVERSITY, priority 2019, published 2025):
# Key:
# Format in all cases: cell-based, human
# MDA-MB-453 cells = assay: 6-day cell proliferation assay, MDA-MB-453; conditions: MDA-MB-453, proliferation over 6 days
# Procedure: (§1) Human breast cancer cell lines MCF7, BT-474, T-47D, MDA-MB-453, MDA-MB-231, Hs 578T, HCC38, SK-BR-3, and DU4475 were purchased from the American Type Culture Collection (ATCC) and no additional cell authentication was performed. The TSE human breast cancer cell line was supplied by Dr. Steven Abcouwer (University of Michigan). All breast cancer cells were cultured at 37° C. under a 5% CO2 atmosphere in RPMI 1640 medium containing 2 mM glutamine (Gibco) and supplemented with 10% fetal bovine serum (FBS) (Gibco). The 293T cell line (ATCC) used for generating lentivirus particles was cultured as above but using DMEM, high glucose (Gibco).
# (§2) Culture medium was added to 12-well plates (1 ml/well) and wells were seeded with cells at Day 0 as follows. MCF7, T-47D, BT-474, HCC38 cells: […] cells/well. MDA-MB-453 and MDA-MB-231 cells: 1×10^4 cells/well. TSE and Hs 578T cells: 0.3×10^4 cells/well. After 16 hours, culture medium was replaced with fresh medium supplemented with appropriate concentrations of inhibitors and was subsequently replaced every 48 hours. On Day 6 cells were trypsinized and suspended in an appropriate volume of culture medium, and the total number of cells per well was determined using a hemocytometer or a TC20 Automated Cell Counter (Bio-Rad).
# MDA-MB-231 cells = assay: 6-day cell proliferation assay, MDA-MB-231
# Procedure: as §1, §2
# TSE cells = assay: 6-day cell proliferation assay, TSE
# Procedure: as §1, §2
# HCC38 cells = assay: 6-day cell proliferation assay, HCC38; conditions: HCC38, proliferation over 6 days
# Procedure: as §1, §2
# [1] = tested on: MDA-MB-231 cells carrying the plasmid vector only; assay: 6-day cell proliferation assay, MDA-MB-231 vector only; conditions: 6 days
# Procedure: as §2
# (§3) Vectors for expressing human GAC or GLS2 in breast cancer cell lines were based on pCDNA3.1/V5-His TOPO (Thermo Fisher Scientific), with the appropriate gene sub-cloned in and the tag switched to HA-tag or myc-tag for immunofluorescence experiments. Vectors pQE80-GAC-72-598 and pQE80-GLS2-38-602, for expressing the processed forms of human GAC (residues 72 to 598) or GLS2 (residues 38 to 602) in E. coli, were described in Huang et al., “Characterization of the Interactions of Potent Allosteric Inhibitors with Glutaminase C, a Key Enzyme in Cancer Cell Glutamine Metabolism,” J. Biol. Chem. 293:3535-3545 (2018), which is hereby incorporated by reference in its entirety.
# (§4) For 60 mm dish format. […]
# [2] = tested on: MDA-MB-231 cells stably expressing GLS2; assay: 6-day cell proliferation assay, MDA-MB-231 stably expressing GLS2
# Procedure: as §2, §3
# (§5) For 60 mm dish format. 0.2 ml Opti-MEM (Gibco) containing […] of the appropriate DNA construct, along with 0.2 ml Opti-MEM containing 12 μl Lipofectamine 2000 (Invitrogen), were separately incubated at room temperature for 5 min. The two solutions were combined and incubated for an additional 20 min, mixed with 1.6 ml culture medium and added to cells. After 5 hours incubation at 37° C. the transfection mixture was replaced with fresh culture medium, and cells were then incubated for an additional 48 hours to allow for ectopic expression of GLS or GLS2. To select for cells stably expressing the DNA construct, culture medium supplemented with 500 μg/ml G-418 disulfate (Research Products International) was added and replaced every 2 days for 2-3 weeks until isolated colonies ˜2 mm in diameter were present. Individual colonies were transferred to a 12-well plate (1 colony per well) using sterile blotting paper soaked in trypsin solution and were then cultured in medium supplemented with 250 μg/ml G-418 disulfate. All colonies were screened by western blot for ectopic expression, and positive clones were maintained in medium supplemented with 250 μg/ml G-418 disulfate.
# [3] = tested on: TSE cells carrying the plasmid vector only; assay: 6-day cell proliferation assay, TSE vector only; conditions: 6 days
# Procedure: as §2, §3, §4
# [4] = tested on: TSE cells stably expressing GLS2; assay: 6-day cell proliferation assay, TSE stably expressing GLS2
# Procedure: as §2, §3, §5
# [5] = MDA-MB-231 (parental), compared with GLS2 clones, 6 days
# [6] = MDA-MB-231, proliferation over 6 days
# [7] = TSE (parental), compared with GLS2 clones, 6 days
# [8] = MDA-MB-231 GLS2 clone 1, 6 days
# [9] = MDA-MB-231 GLS2 clone 2, 6 days
SMILES,EC50 (MDA-MB-453 cells),EC50 (MDA-MB-231 cells; [5]),EC50 (MDA-MB-231 cells; [6]),EC50 (TSE cells; [7]),"EC50 (TSE cells; TSE, proliferation over 6 days)",EC50 (HCC38 cells),EC50 [1],"EC50 [2, 8]","EC50 [2, 9]","EC50 ([2]; MDA-MB-231 with ectopic expression of GLS2, 6 days)",EC50 [3],"EC50 ([4]; TSE GLS2 clone 1, 6 days)","EC50 ([4]; TSE GLS2 clone 2, 6 days)","EC50 ([4]; TSE with ectopic expression of GLS2, 6 days)"
O=C(Cc1ccccc1)Nc1nnc(CCSCCc2nnc(NC(=O)Cc3ccccc3)s2)s1 [BPTES],~20 µM,2 µM,2.1 µM,3 µM,3.1 µM,4.7 µM,1.3 µM,> 20 µM,> 20 µM,> 20 µM,4 µM,> 20 µM,> 20 µM,> 20 µM
CN(C)c1ccc(C2Nc3ccc4ccccc4c3C3=C2C(=O)CC(C)(C)C3)cc1Br (centres unmarked) [Compound 968],3 µM,4 µM,5 µM,4 µM,5 µM,4 µM,2 µM,4 µM,5 µM,,2 µM,7 µM,6 µM,
